Where two headings read alike, the source gives them in different places. Some results are limits rather than exact numbers.

Data on three molecules can be found in patent US20040221332A1, “Plant growth regulating genes, proteins and uses thereof” (priority 2001, published 2004).

Test [1] concerns OsGREP1 transcript levels. Briefly: RNA gel blot of OsGREP1 mRNA in deepwater rice stem sections treated with gibberellin. Also noted: species or system Oryza sativa. The note with it: 50 μM GA3, stem sections, meristematic zone, within 30 minutes and again 15 h after onset. The procedure:
Analysis of hormone and inhibitor effects was performed using excised stem segments containing the youngest growth-responsive internode (Raskin & Kende, 1984). Growth of the stem sections was induced by application of 50 μM GA3 for the times indicated. To inhibit protein synthesis, stem sections were incubated in aqueous solutions of cycloheximide for the times indicated. Plant tissue for RNA extraction was harvested on ice and immediately after harvest frozen in liquid nitrogen. Meristematic tissue was harvested from 0 to 5 mm above the second youngest node, i.e. the intercalary meristem (IM). […]
To determine gene expression under different conditions and in different rice tissues, mRNA abundance of OsGREP1 was analyzed by RNA gel blot hybridization. […]
mRNA abundance of OsGREP1 was also analyzed in different tissues of adult rice plants and seedlings and in suspension-cultured rice cells by RNA gel blot analysis (FIG. 7). […] OsGREP1 mRNA can also be detected in suspension-cultured cells but at lower levels than in all other tissues. […] Stem sections containing the IM and EZ of the internode were treated with 50 μM GA3 and analyzed for expression of OsGREP1 by RNA gel blot hybridization 0, […], 1, 3, 6 and 15 h after treatment (FIG. 8).

Another test concerns OsGREP1 transcripts. Briefly: RNA gel blot of OsGREP1 mRNA in deepwater rice internode sections treated with cycloheximide. Also noted: species or system Oryza sativa. As to the method: Analysis of hormone and inhibitor effects was performed using excised stem segments containing the youngest growth-responsive internode (Raskin & Kende, 1984). Growth of the stem sections was induced by application of 50 μM GA3 for the times indicated. To inhibit protein synthesis, stem sections were incubated in aqueous solutions of cycloheximide for the times indicated. Plant tissue for RNA extraction was harvested on ice and immediately after harvest frozen in liquid nitrogen. Meristematic tissue was harvested from 0 to 5 mm above the second youngest node, i.e. the intercalary meristem (IM). Cells which are predominately involved in elongation were harvested from 5 to 15 mm above the second youngest node, i.e. the elongation zone (EZ) and differentiated tissue was harvested from the oldest part of the internode below the youngest node, i.e. the differentiation zone (DZ).
To determine gene expression under different conditions and in different rice tissues, mRNA abundance of OsGREP1 was analyzed by RNA gel blot hybridization. Total RNA was isolated using the TRIzol reagent (Gibco BRL) and precipitated with 4M LiCl as described (Puissant & Houdebine, 1990). […]
Gene expression of OsGREP1 was also determined by measuring mRNA abundance in IM sections of deepwater rice internodes treated with cycloheximide (CHX) at 0, 0.02, 2, and 20 μg/ml (FIG. 9). […]

For test [2], the system named is protein synthesis. The note with it: alfalfa, 150 μM; cited from earlier work.
Test [3] concerns protein synthesis. The note with it: maize, 20 μM CHX; cited from earlier work.
For another test, the system named is Arabidopsis thaliana. Briefly: Phenotypic characterization of transgenic plants transformed with OsPSK (digital imaging of rosette and inflorescence). Format: in vivo. The procedure:
Of 11 different transgenic plant lines of Arabidopsis thaliana (named AE0017, AE0018, AE0019, AE0021, AE0022, AE0023, AE0024, AE0025, AE0026, AE0027 and Os-PSK) 500 mg of seeds is placed in 50 ml plastic tubes. 27 ml of a 0.2% agar solution is added and mixed to suspend the seeds. The said tubes are stored at 4° C. for 3 days to release dormancy. Subsequently, the suspension of seeds was evenly dispensed as drops of 50 μl on a 50 cm by 30 cm tray containing a mixture of sand and soil in a ratio of 1 to 2.
The trays were placed in the greenhouse under the following conditions: 22° C. at day time, 18° C. at night, 60% RH, 20 hours of photoperiod, subirrigation once a day with water during 15 min. The 4th day and the 10th day after sowing, the seedlings were sprayed with an herbicide solution. The 14th day after sowing, 30 resistant seedlings of each transgenic line were transplanted in individual pots with a diameter of 10 cm containing a mixture of sand and peat in a ratio of 1 to 3.
Said pots are then placed in the greenhouse under the same conditions as described for the trays. The pots are subirrigated during 15 min. once a week, or more if needed. The 14th, 18th, 21st, 28th, 32nd and 39th day after sowing, the rosettes of each plant were photographed using a digital camera and the pictures were stored for further analysis.
The 32nd, 38th, 41 st, 46th, 49th, and 53rd day after sowing, the inflorescence of each plant was photographed equally using a digital camera and the pictures were stored for further analysis. The number of pixels corresponding to plant tissues was recorded on each picture, converted to square cm and used as a measurement of plant size.

Consider `C=C1C[C@]23C[C@@]1(O)CC[C@H]2[C@@]12C=C[C@H](O)[C@@](C)(C(=O)O1)[C@H]2[C@@H]3C(=O)O` [GA3, gibberellic acid], for which the OsGREP1 transcript levels result is “slight and transient increase” in test [1]; “induced” in test [1] (listed as GA).
As to `C[C@@H]1C[C@@H]([C@H](O)CC2CC(=O)NC(=O)C2)C(=O)[C@@H](C)C1` [cycloheximide], the OsGREP1 transcripts result in the test with OsGREP1 transcripts (IM sections of deepwater rice internodes, 20 μg/ml (corresponds to 70 μM) CHX) is reported as “induced”. Besides, the “cycloheximide concentration at which OsGREP1 transcripts accumulate” value in the test with OsGREP1 transcripts (stem sections of deepwater rice, 0 to 20 μg/ml tested) was at least 0.2 µg/mL. The results for the “inhibition of protein synthesis” value with protein synthesis [2] and in the test on protein synthesis [3] were 90% and 23%, respectively.

B1: OsPSK: rice growth regulating polypeptide, prepro-phytosulfokine (SEQ ID NO 104/105), overexpressed in transgenic Arabidopsis under sunflower ubiquitin promoter (protein, listed as Oryza sativa)
chain: MVNPGRTARALCLLCLALLLLGQDTHSRKLLLQEKHSHGVGNGTTTTQEPSRENGGSTGSNNNGQLQFDSAKWEEFHTDYIYTQDVKNP
Consider B1, for which, in the test with Arabidopsis thaliana (OsPSK plants vs other transgenic plant lines in the same experiment), the “ratio between size of inflorescence before harvest and maximal measured size of the rosette” value is listed as “significantly higher”. Further, the rosette size entry in the test on Arabidopsis thaliana (OsPSK transgenic line vs other transgenic lines) is “slightly bigger”. Further, the plant size entry with Arabidopsis thaliana (OsPSK transgenic line vs the other transgenic plant lines in the experiment) is recorded as “on average the biggest plants”.
